Consider 1 molecule from patent US12595250B2, “Substituted pyrimidine compounds as multifunctional radical quenchers and their uses” (ARIZONA BOARD OF REGENTS ON BEHALF OF ARIZONA STATE …, priority 2016, dated 2026).

Common to all, as to format: cell-based, Human
Test [1] has as its system FRDA lymphocytes. Description: Lipid peroxidation assay (C11-BODIPY 581/591, FACS). As to conditions: high concentration, 5 mM DEM. Here is the method:
The bar graph represents the percentage of the median mean fluorescence intensity of C11-BODIPY-green fluorescence relative to a treated control is shown. Data are expressed as the mean±SEM (n=3).
Human mitochondrial disease cell lines, Friedreich's ataxia lymphocytes (GM15850), and Leigh's syndrome lymphocytes (GM13740) were obtained from Coriell Cell Repositories (Camden, NJ). Lymphocytes were cultured in RPMI-1640 medium (Gibco, Life Technologies, Grand Island, NY) with 15% fetal calf serum, 2 mM glutamine (HyClone, South Logan, UT) and 1% penicillin-streptomycin antibiotic supplement (Cellgro, Manassas, VA). Cells were passaged every other day to maintain them in log phase growth and kept at a nominal concentration of 5-10×10^5 cell/mL. A CoQ10 deficient lymphocyte cell line (GM17932) was obtained from Coriell Cell Repositories. […]
Lipid peroxidation was measured by a quantitative FACS assay using the oxidation-sensitive fatty acid probe C11-BODIPY^581/591 (Molecular Probe) as described in art (Goldschmidt, R., et al. Bioorg. Med. Chem. 2013, 21, 969; Khdour, 0. M., et al. ACS Med. Chem. Lett. 2013, 4, 724; and Arce, P. M., et al. Bioorg. Med. Chem. 2012, 20, 5188). […] Cells were resuspended in phosphate buffered saline and were analyzed immediately by FACS (C6 Accuri, BD Biosciences, San Jose, CA), using a 488 nm excitation laser and the FL1-H channel 530±15 nm emission filter. The generation of lipid peroxide was detected as a result of the oxidation of the polyunsaturated butadienyl portion of the dye, resulting in a shift of the fluorescence emission peak from red to green. In each analysis, 10,000 events were recorded after cell debris were electronically gated out. […] Results were expressed as a percentage of the median mean fluorescence intensity of C11-BODIPY-green relative to the treated control (DEM).

Test [2] has as its system FRDA lymphocytes. Description: Cellular ATP concentration assay (luciferin-luciferase). As to conditions: Homo sapiens, Lymphocyte, incubation 48 h, read-out: Total ATP level (% control) FRDA lymphocytes.
Test [3] deals with FRDA lymphocytes. Briefly: Reactive oxygen species (ROS) assay (DCFH-DA, FACS). As to conditions: high concentration, 5 mM DEM. Here is the method:
The cells were stained with 2, 7-dichlorodihydrofluorescein diacetate (DCFH-DA) for 15 minutes prior to analysis. The samples were analyzed immediately by flow cytometry (C6 Accuri, BD Biosciences, San Jose, CA). The bar graph represents the percentage of the median mean fluorescence intensity of DCF fluorescence relative to a DEM-treated control. Data shown represent the mean±SEM of two different experiments run as duplicates.
Human mitochondrial disease cell lines, Friedreich's ataxia lymphocytes (GM15850), and Leigh's syndrome lymphocytes (GM13740) were obtained from Coriell Cell Repositories (Camden, NJ). […]
Quantitative analysis of intracellular ROS levels in FRDA lymphocytes, challenged with 5 mM diethyl maleate (DEM) in presence or absence of the test compounds, was obtained by FACS analysis using a dichlorodihydrofluorescein diacetate probe (DCFH-DA), as described in art (Goldschmidt, R., et al. Bioorg. Med Chem. 2013, 21, 969; Arce, P. M., et al. Bioorg. Med Chem. 2012, 20, 5188; Arce, P. M., et al. ACS Med Chem. Lett. 2011, 2, 608; Khdour, O. M., et al. Pharm. Res. 2011, 28, 2896; Lu, J., et al. Bioorg. Med Chem. 2010, 18, 7628; and Cai, X., et al. Bioorg. Med Chem. 2012, 20, 3584). […] The samples were analyzed immediately by flow cytometry (C6 Accuri, BD Biosciences, San Jose, CA), using a 488 nm excitation laser and the FL1-H channel 530±15 nm emission filter. […]

Consider `CCCCCCCCCCCCCCc1nc(OC2CCC2)nc(OC2CCC2)c1O` [Compound 3b, 2,4-Dicyclobutanoxy-6-tetradecylpyrimidin-5-ol], for which the “Suppression of lipid peroxidation (in words, FIG. 2)” value in the test on FRDA lymphocytes [1] is on record as “slightly efficient”. In addition, the activity at 1 µM with FRDA lymphocytes [2] (1 μM) was 99 ± 1%. For the same molecule, the activity at 5 µM in the test on FRDA lymphocytes [2] (5 μM) was 98 ± 2%. The activity at 20 µM in the test with FRDA lymphocytes [2] (20 μM) was 94 ± 2%. Further, the “Suppression of ROS (in words, FIG. 3)” value in the test with FRDA lymphocytes [3] is recorded as “appeared to be efficient”.
